Laboratory results published in patent US20100267561A1, “HERBICIDAL PYRIDAZINONE DERIVATIVES” (priority 2007, published 2010).

Experiments:
Test in all cases: Test B pre-/postemergence plant response
Type in all cases: in vivo
[1] = system: Russian thistle (Salsola iberica); details: Preemergence
How it was run: (§1)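 Visual scoring from 0 (no effect) to 100 (complete control) against untreated controls was done 13 to 15 days after greenhouse treatment. Chemicals were formulated in a surfactant-containing non-phytotoxic solvent and applied to soil preemergence or to 1- to 4-leaf (2-18 cm) plants postemergence.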

[2] = system: bermudagrass (Cynodon dactylon)
How it was run: as §1

[3] = system: blackgrass (Alopecurus myosuroides)
How it was run: as §1

[4] = system: catchweed bedstraw (Galium aparine); details: Preemergence
How it was run: as §1

[5] = system: cocklebur (Xanthium strumarium)
How it was run: as §1

corn (Zea mays) = system: corn (Zea mays)
How it was run: as §1

[6] = system: downy bromegrass (Bromus tectorum)
How it was run: as §1

[7] = system: lambsquarters (Chenopodium album)
How it was run: as §1

[8] = system: morningglory (Ipomoea coccinea)
How it was run: as §1

soybean (Glycine max) = system: soybean (Glycine max)
How it was run: as §1

[9] = system: surinam grass (Brachiaria decumbens)
How it was run: as §1

[10] = system: wheat (Triticum aestivum)
How it was run: as §1

[11] = system: yellow nutsedge (Cyperus esculentus)
How it was run: as §1

[12] = 8 g ai/ha, scale 0 to 100 (0 no effect, 100 complete control)
[13] = 31 g ai/ha, scale 0 to 100 (0 no effect, 100 complete control)
[14] = 62 g ai/ha, 0 to 100 scale, 0 no effect, 100 complete control
[15] = 8 g ai/ha, postemergence, 0-100 scale
[16] = Postemergence, 16 g ai/ha, scale 0 to 100
[17] = Postemergence, 31 g ai/ha, scale 0 to 100
[18] = Postemergence, 62 g ai/ha, scale 0 to 100, 0 no effect, 100 complete control
[19] = Preemergence, 8 g ai/ha, scale 0 to 100 (0 no effect, 100 complete control)
[20] = Preemergence, 16 g ai/ha, scale 0 to 100 (0 no effect, 100 complete control)
[21] = Preemergence, 31 g ai/ha, scale 0 to 100 (0 no effect, 100 complete control)
[22] = Preemergence, 62 g ai/ha, 0 to 100 scale, 0 no effect, 100 complete control
[23] = Preemergence, 16 g ai/ha, scale 0 to 100
[24] = 16 g ai/ha, postemergence, 0-100 scale
[25] = Preemergence, 31 g ai/ha, 0 to 100 scale, 0 no effect, 100 complete control
[26] = Preemergence, 62 g ai/ha, scale 0 to 100
[27] = Preemergence, 8 g ai/ha, scale 0 to 100

Cc1nn(C)c(=O)c(-n2nc(-c3ccc(Br)cc3)cc2C)c1O [Compound 81]
80: Blackgrass plant response rating [3, 19]
70: Corn plant response rating (corn (Zea mays); [23]) | Plant response rating, Bromegrass, Downy [6, 18] | Plant response rating, Bromegrass, Downy [6, 21] | Bromegrass, Downy plant response rating [6, 23]
5: Wheat plant response rating [10, 23]
95: Plant response rating, Bermudagrass [2, 16] | Plant response rating, Wheat [10, 17]
50: Bermudagrass plant response rating [2, 20] | Plant response rating, Bromegrass, Downy [6, 17] | Plant response rating, Wheat [10, 21]
30: Wheat plant response rating [10, 15]
60: Surinam Grass plant response rating [9, 19]
40: Bermudagrass plant response rating [2, 15]
65: Corn plant response rating (corn (Zea mays); [19])
85: Blackgrass plant response rating [3, 15] | Blackgrass plant response rating [3, 23] | Plant response rating, Bromegrass, Downy [6, 22] | Surinam Grass plant response rating [9, 23] | Plant response rating, Wheat [10, 22]
55: Wheat plant response rating [10, 24]
100: Plant response rating, Bermudagrass [2, 17] | Plant response rating, Bermudagrass [2, 18] | Plant response rating, Bermudagrass [2, 21] | Plant response rating, Bermudagrass [2, 22] | Plant response rating, Blackgrass [3, 18] | Plant response rating, Blackgrass [3, 21] | Plant response rating, Blackgrass [3, 22] | Plant response rating, Corn (corn (Zea mays); [16]) | Plant response rating, Corn (corn (Zea mays); [17]) | Plant response rating, Corn (corn (Zea mays); [18]) | Plant response rating, Corn (corn (Zea mays); [22]) | Plant response rating, Morningglory [8, 22] | Plant response rating, Surinam Grass [9, 17] | Plant response rating, Surinam Grass [9, 18] | Plant response rating, Surinam Grass [9, 21] | Plant response rating, Surinam Grass [9, 22] | Plant response rating, Wheat [10, 18]
90: Plant response rating, Blackgrass [3, 16] | Surinam Grass plant response rating [9, 15]
45: Corn plant response rating (corn (Zea mays); [15]) | Plant response rating, Bromegrass, Downy [6, 16]
20: Bromegrass, Downy plant response rating [6, 19] | Plant response rating, Soybean (soybean (Glycine max); [18])
15: Plant response rating, Soybean (soybean (Glycine max); [17])
98: Plant response rating, Blackgrass [3, 17] | Plant response rating, Corn (corn (Zea mays); [21]) | Surinam Grass plant response rating [9, 24]
0: Russian Thistle plant response rating [1, 12] | Plant response rating, Russian Thistle [1, 13] | Plant response rating, Russian Thistle [1, 14] | Russian Thistle plant response rating ([1]; 16 g ai/ha, scale 0 to 100) | Bermudagrass plant response rating [2, 19] | Galium plant response rating [4, 12] | Plant response rating, Galium [4, 13] | Plant response rating, Galium [4, 14] | Galium plant response rating ([4]; 16 g ai/ha, scale 0 to 100) | Cocklebur plant response rating [5, 15] | Plant response rating, Cocklebur [5, 16] | Plant response rating, Cocklebur [5, 17] | Plant response rating, Cocklebur [5, 18] | Cocklebur plant response rating [5, 19] | Plant response rating, Cocklebur [5, 21] | Plant response rating, Cocklebur [5, 22] | Cocklebur plant response rating [5, 23] | Bromegrass, Downy plant response rating [6, 15] | Lambsquarters plant response rating [7, 15] | Lambsquarters plant response rating [7, 24] | Plant response rating, Lambsquarters [7, 17] | Plant response rating, Lambsquarters [7, 18] | Lambsquarters plant response rating [7, 19] | Plant response rating, Lambsquarters [7, 21] | Plant response rating, Lambsquarters [7, 22] | Lambsquarters plant response rating [7, 23] | Morningglory plant response rating [8, 15] | Morningglory plant response rating [8, 24] | Plant response rating, Morningglory [8, 17] | Plant response rating, Morningglory [8, 18] | Morningglory plant response rating [8, 19] | Plant response rating, Morningglory [8, 21] | Morningglory plant response rating [8, 23] | Soybean plant response rating (soybean (Glycine max); [15]) | Soybean plant response rating (soybean (Glycine max); [24]) | Soybean plant response rating (soybean (Glycine max); [19]) | Plant response rating, Soybean (soybean (Glycine max); [21]) | Plant response rating, Soybean (soybean (Glycine max); [22]) | Soybean plant response rating (soybean (Glycine max); [23]) | Wheat plant response rating [10, 19] | Nutsedge, Yellow plant response rating [11, 15] | Nutsedge, Yellow plant response rating [11, 24] | Plant response rating, Nutsedge, Yellow [11, 17] | Plant response rating, Nutsedge, Yellow [11, 18] | Nutsedge, Yellow plant response rating [11, 19] | Plant response rating, Nutsedge, Yellow [11, 21] | Plant response rating, Nutsedge, Yellow [11, 22] | Nutsedge, Yellow plant response rating [11, 23]

Cc1cc(-c2ccc(Cl)cc2)nn1-c1c(OS(=O)(=O)c2ccccc2[N+](=O)[O-])cnn(C)c1=O [Compound 51]
30: Surinam Grass plant response rating [9, 27]
90: Plant response rating, Surinam Grass [9, 21]
75: Surinam Grass plant response rating [9, 23]
100: Plant response rating, Bermudagrass [2, 20] | Plant response rating, Bermudagrass [2, 25] | Plant response rating, Bermudagrass [2, 26] | Plant response rating, Blackgrass [3, 26] | Plant response rating, Surinam Grass [9, 22]
60: Bermudagrass plant response rating [2, 19] | Plant response rating, Corn (corn (Zea mays); [25]) | Plant response rating, Wheat [10, 22]
10: Plant response rating, Wheat [10, 21]
98: Plant response rating, Blackgrass [3, 20] | Plant response rating, Blackgrass [3, 25]
50: Blackgrass plant response rating [3, 27]
80: Plant response rating, Corn (corn (Zea mays); [26])
0: Plant response rating, Russian Thistle [1, 13] | Plant response rating, Russian Thistle ([1]; 62 g ai/ha, scale 0 to 100) | Russian Thistle plant response rating ([1]; 8 g ai/ha, scale 0 to 100) | Russian Thistle plant response rating ([1]; 16 g ai/ha, scale 0 to 100) | Plant response rating, Galium ([4]; 31 g ai/ha, 0 to 100 scale, 0 no effect, 100 complete control) | Plant response rating, Galium ([4]; 62 g ai/ha, scale 0 to 100) | Galium plant response rating ([4]; 8 g ai/ha, scale 0 to 100) | Galium plant response rating ([4]; 16 g ai/ha, scale 0 to 100) | Plant response rating, Cocklebur [5, 20] | Plant response rating, Cocklebur [5, 25] | Plant response rating, Cocklebur [5, 26] | Cocklebur plant response rating [5, 27] | Plant response rating, Bromegrass, Downy [6, 20] | Bromegrass, Downy plant response rating [6, 27] | Plant response rating, Lambsquarters [7, 25] | Plant response rating, Lambsquarters [7, 26] | Plant response rating, Morningglory [8, 21] | Plant response rating, Morningglory [8, 26] | Morningglory plant response rating [8, 27] | Morningglory plant response rating [8, 23] | Plant response rating, Soybean (soybean (Glycine max); [21]) | Plant response rating, Soybean (soybean (Glycine max); [26]) | Soybean plant response rating (soybean (Glycine max); [27]) | Soybean plant response rating (soybean (Glycine max); [23]) | Wheat plant response rating [10, 27] | Wheat plant response rating [10, 23] | Plant response rating, Nutsedge, Yellow [11, 21] | Plant response rating, Nutsedge, Yellow [11, 26] | Nutsedge, Yellow plant response rating [11, 27] | Nutsedge, Yellow plant response rating [11, 23]
85: Plant response rating, Bromegrass, Downy [6, 26]
45: Plant response rating, Bromegrass, Downy [6, 25]
